Measurements taken from patent US12187723B2 (BRISTOL-MYERS SQUIBB COMPANY, priority 2019, dated 2025).

Columns and labels:
human TLR9 = molecular target: T1, human TLR9 (Homo sapiens, UniProt Q9NR96); test: TLR9 inhibition reporter assay (HEK-Blue SEAP); type: cell-based; conditions: HEK-Blue cells overexpressing human TLR9, ODN2006 5 nM, 22 hour incubation
T1 construct: host or cells: HEK-Blue cells
T1 sequence (Q9NR96 26-1032): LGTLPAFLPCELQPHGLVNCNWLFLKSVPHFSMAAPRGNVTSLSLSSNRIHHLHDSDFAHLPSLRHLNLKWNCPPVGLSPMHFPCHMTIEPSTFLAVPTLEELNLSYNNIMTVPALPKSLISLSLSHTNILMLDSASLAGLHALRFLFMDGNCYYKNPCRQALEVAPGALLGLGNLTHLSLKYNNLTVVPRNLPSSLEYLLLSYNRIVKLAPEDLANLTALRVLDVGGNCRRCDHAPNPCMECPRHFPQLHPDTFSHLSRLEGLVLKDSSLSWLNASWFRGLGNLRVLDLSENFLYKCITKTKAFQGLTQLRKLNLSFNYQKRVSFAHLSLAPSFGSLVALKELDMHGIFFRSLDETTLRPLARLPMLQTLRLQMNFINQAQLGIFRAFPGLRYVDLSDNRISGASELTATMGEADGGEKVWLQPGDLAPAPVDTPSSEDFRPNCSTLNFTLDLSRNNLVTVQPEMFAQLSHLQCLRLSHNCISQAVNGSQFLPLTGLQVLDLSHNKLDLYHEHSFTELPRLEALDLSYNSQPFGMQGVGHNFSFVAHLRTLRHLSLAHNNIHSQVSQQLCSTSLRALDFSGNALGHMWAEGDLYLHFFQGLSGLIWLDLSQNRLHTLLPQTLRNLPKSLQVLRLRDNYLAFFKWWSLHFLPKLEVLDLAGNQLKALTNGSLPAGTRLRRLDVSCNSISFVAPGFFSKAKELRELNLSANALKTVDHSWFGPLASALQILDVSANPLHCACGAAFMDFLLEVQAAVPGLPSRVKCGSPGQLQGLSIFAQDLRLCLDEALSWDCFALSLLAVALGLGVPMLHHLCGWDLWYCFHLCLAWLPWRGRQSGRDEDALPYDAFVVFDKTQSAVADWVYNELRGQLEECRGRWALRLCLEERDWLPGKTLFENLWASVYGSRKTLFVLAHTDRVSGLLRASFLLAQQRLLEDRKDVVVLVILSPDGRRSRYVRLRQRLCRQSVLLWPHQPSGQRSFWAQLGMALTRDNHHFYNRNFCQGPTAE
Method in brief: (§1)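 Screening used HEK-Blue cells overexpressing one human TLR (7, 8 or 9) and an IFN-β minimal promoter–NF-κB/AP-1 SEAP construct. Stimulation lasted 22 h at 37 °C with receptor-specific agonist: gardiquimod, R848 or ODN2006 at 7.5 μM, 15.9 μM and 5 nM.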

human TLR8 = molecular target: T2, human TLR8 (Homo sapiens, UniProt Q9NR97); test: TLR8 inhibition reporter assay (HEK-Blue SEAP); type: cell-based; conditions: HEK-Blue cells overexpressing human TLR8, R848 15.9 μM, 22 hour incubation
T2 construct: host or cells: HEK-Blue cells
T2 sequence (Q9NR97 27-1041): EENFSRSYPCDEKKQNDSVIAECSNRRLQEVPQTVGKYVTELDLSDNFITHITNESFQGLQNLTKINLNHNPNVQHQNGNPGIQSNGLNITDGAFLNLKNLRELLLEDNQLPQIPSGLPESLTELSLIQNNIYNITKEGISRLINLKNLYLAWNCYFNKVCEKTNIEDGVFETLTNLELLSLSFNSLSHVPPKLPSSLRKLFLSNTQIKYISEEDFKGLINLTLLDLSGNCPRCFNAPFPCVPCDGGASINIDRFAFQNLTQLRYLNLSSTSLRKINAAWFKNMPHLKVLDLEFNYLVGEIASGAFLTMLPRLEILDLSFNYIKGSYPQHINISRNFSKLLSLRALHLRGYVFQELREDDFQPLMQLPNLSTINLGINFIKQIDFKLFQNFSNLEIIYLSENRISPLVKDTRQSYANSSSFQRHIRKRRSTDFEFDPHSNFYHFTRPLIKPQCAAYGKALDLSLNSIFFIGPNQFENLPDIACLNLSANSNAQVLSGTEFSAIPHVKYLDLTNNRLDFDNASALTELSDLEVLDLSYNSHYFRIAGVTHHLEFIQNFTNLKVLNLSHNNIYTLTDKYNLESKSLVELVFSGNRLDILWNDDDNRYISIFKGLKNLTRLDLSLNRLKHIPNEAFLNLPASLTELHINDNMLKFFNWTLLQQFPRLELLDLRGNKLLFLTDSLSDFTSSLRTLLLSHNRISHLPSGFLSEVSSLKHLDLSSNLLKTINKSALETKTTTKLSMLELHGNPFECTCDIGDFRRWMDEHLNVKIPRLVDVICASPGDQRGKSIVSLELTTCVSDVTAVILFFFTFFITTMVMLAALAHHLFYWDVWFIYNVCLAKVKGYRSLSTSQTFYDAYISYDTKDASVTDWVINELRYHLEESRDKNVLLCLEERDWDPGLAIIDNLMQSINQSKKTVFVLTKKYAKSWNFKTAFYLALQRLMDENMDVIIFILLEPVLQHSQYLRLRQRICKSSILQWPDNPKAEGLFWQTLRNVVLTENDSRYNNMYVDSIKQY
Method in brief: as §1

SMILES	IC50 (human TLR9) [nM]	IC50 (human TLR8) [nM]
COc1cc(-c2cc3[nH]c(=O)n(C4CCN(CCS(C)(=O)=O)CC4)c3cc2C(C)C)cn2ncnc12 [Example 224, 6-isopropyl-5-(8-methoxy-[1,2,4]triazolo[1,5-a]pyridin-6-yl)-1-(1-(2-(methylsulfonyl)ethyl)piperidin-4-yl)-1,3-dihydro-2H-benzo[d]imidazol-2-one]	> 50000	25.5
COc1cc(-c2cc3[nH]c(=O)n([C@@H]4CCCN(C5CCCOC5)C4)c3cc2C(C)C)cn2ncnc12 (single isomer, unassigned) [Example 218]	24200	5.19
CCc1cc2c(cc1-c1cc(OC)c3ncnn3c1)[nH]c(=O)n2[C@@H]1CCCN(C2CCCOC2)C1 (stereo partly drawn) [Example 215, 6-ethyl-5-(8-methoxy-[1,2,4]triazolo[1,5-a]pyridin-6-yl)-1-((3R)-1-(tetrahydro-2H-pyran-3-yl)piperidin-3-yl)-1,3-dihydro-2H-benzo[d]imidazol-2-one]	21000	13.7
COc1cc(-c2cc3[nH]c(=O)n([C@H]4CC[C@H](NC5COC5)CC4)c3cc2C(C)C)cn2ncnc12 [Example 201, 6-isopropyl-5-(8-methoxy-[1,2,4]triazolo[1,5-a]pyridin-6-yl)-1-((1r,4r)-4-(oxetan-3-ylamino)cyclohexyl)-1,3-dihydro-2H-benzo[d]imidazol-2-one]	22900	1.54
COc1cc(-c2cc3[nH]c(=O)n(C4CCC(N5CC(O)(C(F)(F)F)C5)CC4)c3cc2C(C)C)cn2ncnc12 (single isomer, unassigned) [Example 242, 1-(4-(3-hydroxy-3-(trifluoromethyl)azetidin-1-yl)cyclohexyl)-6-isopropyl-5-(8-methoxy-[1,2,4]triazolo[1,5-a]pyridin-6-yl)-1,3-dihydro-2H-benzo[d]imidazol-2-one]	23700	1.12
COCCN1CCC[C@@H](n2c(=O)[nH]c3cc(-c4cc(OC)c5ncnn5c4)c(C(C)C)cc32)C1 (single isomer, unassigned) [Example 225]	33800	3.37
CCc1cc2c(cc1-c1cc(OC)c3ncnn3c1)[nH]c(=O)n2[C@H]1CC[C@@H](NC2COC2)CC1 [Example 170, 6-ethyl-5-(8-methoxy-[1,2,4]triazolo[1,5-a]pyridin-6-yl)-1-((1s,4s)-4-(oxetan-3-ylamino)cyclohexyl)-1,3-dihydro-2H-benzo[d]imidazol-2-one]	20000	1.27
COc1cc(-c2cc3[nH]c(=O)n([C@H]4CC[C@H](N(CC(C)C)CC(C)C)CC4)c3cc2C(C)C)cn2ncnc12 [Example 205, 1-((1r,4r)-4-(diisobutylamino)cyclohexyl)-6-isopropyl-5-(8-methoxy-[1,2,4]triazolo[1,5-a]pyridin-6-yl)-1,3-dihydro-2H-benzo[d]imidazol-2-one]	11600	1.63
CCc1cc2c(cc1-c1cc(OC)c3ncnn3c1)[nH]c(=O)n2[C@@H]1CCCN(CC2CCCC2)C1 [Example 209, (R)-1-(1-(cyclopentylmethyl)piperidin-3-yl)-6-ethyl-5-(8-methoxy-[1,2,4]triazolo[1,5-a]pyridin-6-yl)-1,3-dihydro-2H-benzo[d]imidazol-2-one]	12700	20.4
CCc1cc2c(cc1-c1cc(OC)c3ncnn3c1)[nH]c(=O)n2[C@@H]1CCCN(C(=O)CN(C)C)C1 [Example 228, (R)-1-(1-(dimethylglycyl)piperidin-3-yl)-6-ethyl-5-(8-methoxy-[1,2,4]triazolo[1,5-a]pyridin-6-yl)-1,3-dihydro-2H-benzo[d]imidazol-2-one]	14100	38.7
CCc1cc2c(cc1-c1cc(OC)c3ncnn3c1)[nH]c(=O)n2[C@@H]1CCCN(C2COC2)C1 [Example 173, (R)-6-ethyl-5-(8-methoxy-[1,2,4]triazolo[1,5-a]pyridin-6-yl)-1-(1-(oxetan-3-yl)piperidin-3-yl)-1,3-dihydro-2H-benzo[d]imidazol-2-one]	> 50000	18

The next molecules have a lower IC50 (human TLR9) than those just listed; values first:

IC50 (human TLR9) [nM]	IC50 (human TLR8) [nM]	SMILES
10700	3.03	CCc1cc2c(cc1-c1cc(OC)c3ncnn3c1)[nH]c(=O)n2[C@@H]1CCCN(CC)C1 [Example 171, (R)-6-ethyl-1-(1-ethylpiperidin-3-yl)-5-(8-methoxy-[1,2,4]triazolo[1,5-a]pyridin-6-yl)-1,3-dihydro-2H-benzo[d]imidazol-2-one]
10700	4.34	CCc1cc2c(cc1-c1cc(OC)c3ncnn3c1)[nH]c(=O)n2[C@@H]1CCCN(CC(C)C)C1 [Example 177, (R)-6-ethyl-1-(1-isobutylpiperidin-3-yl)-5-(8-methoxy-[1,2,4]triazolo[1,5-a]pyridin-6-yl)-1,3-dihydro-2H-benzo[d]imidazol-2-one]
9550	143	Cc1cc2c(cc1-c1cc(C)c3ncnn3c1)[nH]c(=O)n2[C@H]1CCCN(C)C1 [Example 11, (S)-6-methyl-5-(8-methyl-[1,2,4]triazolo[1,5-a]pyridin-6-yl)-1-(1-methylpiperidin-3-yl)-1,3-dihydro-2H-benzo[d]imidazol-2-one]
7470	2.62	CCc1cc2c(cc1-c1cc(OC)c3ncnn3c1)[nH]c(=O)n2[C@@H]1CCCN(CC(CC)CC)C1 [Example 178, (R)-6-ethyl-1-(1-(2-ethylbutyl)piperidin-3-yl)-5-(8-methoxy-[1,2,4]triazolo[1,5-a]pyridin-6-yl)-1,3-dihydro-2H-benzo[d]imidazol-2-one]
7340	1.39	CCc1cc2c(cc1-c1cc(OC)c3ncnn3c1)[nH]c(=O)n2[C@@H]1CCCN(C)C1 [Example 174, (R)-6-ethyl-5-(8-methoxy-[1,2,4]triazolo[1,5-a]pyridin-6-yl)-1-(1-methylpiperidin-3-yl)-1,3-dihydro-2H-benzo[d]imidazol-2-one]
4630	4.15	COc1cc(-c2cc3[nH]c(=O)n([C@H]4CC[C@H](NC5CCN(C(C)C)CC5)CC4)c3cc2C(C)C)cn2ncnc12 [Example 207, 6-isopropyl-1-((1r,4r)-4-((1-isopropylpiperidin-4-yl)amino)cyclohexyl)-5-(8-methoxy-[1,2,4]triazolo[1,5-a]pyridin-6-yl)-1,3-dihydro-2H-benzo[d]imidazol-2-one]
4420	62.9	Cc1cc2c(cc1-c1cc(C)c3ncnn3c1)[nH]c(=O)n2[C@H]1CCCN(C(C)C)C1 [Example 13, (S)-1-(1-isopropylpiperidin-3-yl)-6-methyl-5-(8-methyl-[1,2,4]triazolo[1,5-a]pyridin-6-yl)-1,3-dihydro-2H-benzo[d]imidazol-2-one]
